The source of these data is patent US20240285808A1, “MOLECULAR PROBES FOR IN VIVO DETECTION OF ALDEHYDES” (The General Hospital Corporation, priority 2021, published 2024).

For data set [1], the system named is liver of CCl4 injured mice. Format: in vivo, mouse. The conditions noted are these: CCl4 injured mice. As for the experimental part: CCl4 Liver Fibrosis Model:
Male C57BL/6 mice (Charles River Laboratories, Wilmington, MA) were treated with carbon tetrachloride for 12 weeks (0.1 ml of 20% CCl4 in olive oil the first week, 30% the second week, and 40% from weeks 3-12) by oral gavage, 2-3 times per week. Control mice were fed vehicle (olive oil) only.
A total of 53 C57BL/6 mice were included to study CCl4 induced hepatic fibrosis: • A. CCl4 for 12 weeks (n=20). Each mouse was imaged with probe 1 and then imaged again 24 hours later with probe 2. Probe 1 and Probe 2 were randomly chosen from GdDOTA, GdCHyd, Mn-12, Gd-9 and Gd-10. • B. Vehicle treated control (n=20). Each mouse was imaged with probe 1 and then imaged again 24 hours later with probe 2. Probe 1 and Probe 2 were randomly chosen from GdDOTA, Mn-12, GdCHyd, Gd-9, Gd-10. • C. CCl4 for 12 weeks (n=3, another 3 pair-wise comparison have been done in group A). Each mouse was imaged with probe 1 and then imaged again 24 hours later with probe 2. […] Each mouse was imaged with probe 1 and then imaged again 24 hours later with probe 2. Probe 1 and Probe 2 were randomly choosing from Gd-9 and Gd-10. • E. CCl4 for 12 weeks (n=3). Each mouse was imaged with Gd-9. After 24 hours, the same mouse was first injected with 1000 μmol/kg of Yb-9 and then injected with 100 μmol/kg of Gd-9 15 min after the Yb-9 injection.
Animals were anesthetized with isoflurane (1-2%) and placed in a specially designed cradle with body temperature maintained at 37° C. The inhaled isoflurane level was adjusted to maintain a respiration rate of 60±5 breaths per minute. The tail vein was cannulated for intravenous (i.v.) delivery of the contrast agent while the animal was positioned in the scanner. Imaging was performed at 4.7 T using a small bore animal scanner with a custom-built volume coil. Mice were imaged with a dose of 100 μmol/kg from 30 mM stock solution of Gd or Mn complex.
For mice liver imaging, a series of baseline images (3D T1 weighted fast low angle shot magnetic resonance imaging (FLASH)) were first acquired (repetition time/echo time=15/2 ms; flip angle, 30°; field of view, 48×30 mm^2; matrix size, […]; slice thickness, 0.25 mm; acquisition time, 3 minutes 20 seconds), then a bolus of Gd or Mn complex was administered i.v. and imaging performed for a period of 45 min p.i. with the repetition acquisition of 3D T1 weighted FLASH sequences. Following the imaging session, animals were sacrificed (75 min p.i.) and liver tissue was subjected to histopathologic analysis.
For liver imaging analysis, a region of interest (ROI) was manually traced encompassing the liver parenchyma while avoiding major blood vessels. A second ROI was placed on the dorsal muscle visible in the same image slice to quantify the signal intensity in the muscle for comparison. Seven ROIs were placed in the field of view without any tissue (air) to measure the variation in background signal. More than 20 axial slices per mouse across the entire liver were analyzed in this fashion. […] Contrast to noise ratio (CNR) was calculated by measuring the difference in signal intensity (SI) between liver and muscle and normalizing to the standard deviation of the signal in the air, eq 21. ΔCNR was calculated by subtracting CNR measured prior to probe injection (CNRPre) from CNR measured after injection (CNRPost), eq 22. […]

The test system of data set [2] is lungs of bleomycin-injured mice. As to the kind of experiment: PET probe lung uptake in naïve and bleomycin-injured mice (gamma counter). The conditions noted are these: 90 min post injection; for Lung uptake, Bleo: 14 days post bleomycin injury; for Lung uptake, Naïve: naïve mice. Format: in vivo, mouse. Here is the method:
C57Bl/6 adult male mice at 8 weeks of age (Jackson Laboratories, Barr Harbor, ME) received a single intratracheal dose of bleomycin, 1 units/kg body weight (50 μL total volume) (Fresenius Kabi, Lake Zurich, Il) as previously described in Desogere, P., et al. Optimization of a Collagen-Targeted PET Probe for Molecular Imaging of Pulmonary Fibrosis. J Nuc Med 58, 1991-1996 (2017).
Imaging and Biodistribution Study for Selectivity of Allysine-Reactive Probes In Vivo:
(§1) Bleomycin-injured mice at 14 days after injury were sedated and then injected with Compound 19, Compound 20, Gd-CHyd (Akam, E. A., et al. Improving the reactivity of hydrazine-bearing MRI probes for in vivo imaging of lung fibrogenesis. Chemical Science 11, 224-231 (2020)) formulated to contain an equal concentration of Eu-DOTA as a non-binding control probe. Animals were then euthanized at 30 minutes after injection. The lungs were harvested separately, along with blood, tail and liver. Each sample was analyzed by ICP-MS for gadolinium and europium content, and the lungs were also assessed for hydroxyproline content. Selectivity is reported as the ratio of Gd to Eu. All animals were dosed via tail vein injection at 100 nmol/g body weight from 30 mM solutions of gadolinium probes with 30 mM Eu-DOTA as determined by ICP-MS. For PET probes, Compounds 1-8 were radiolabeled with either ^68Ga or ^64Cu and the dose was delivered as a bolus injection through tail vein. Animals were euthanized 90 min post injection and their organs and tissues were harvested and counted using a gamma counter. For an imaging study with a PET tracer, animals were injected inside PET/MRI scanner and scanned dynamically for 60 min under anesthesia. The animals were euthanized 90 min post injection and their organs and tissues were counted using a gamma counter. The biodistribution of Mn-15, Mn-16, Mn-17, and Mn-18 was determined by injecting a mixture of ^52/nat complex into naïve mice and activity in each tissue were measured 24 hours post injection.

The test system is the same in data set [3]. Description: ^68Ga-7 PET/MRI imaging and organ counts in bleomycin-injured and naïve mice. The conditions noted are these: for probe uptake in lungs, PET scans: 55 min p.i.; for probe uptake in lungs, organ counts: 90 min p.i. Format: in vivo, mouse. As for the experimental part: as §1
Probe ^68Ga-7 was synthesized in 5 steps. Male C57BL/6 mice were intratracheally instilled with bleomycin (1.2 U/kg) and imaged after 14 days when allysine levels peak in the lung. Bleomycin injured mice or age-matched controls were placed in a micro-PET/MRI scanner and administered ^68Ga-7 as a bolus via the lateral tail vein and dynamically imaged for 60 minute. At 90 min p.i. animals were euthanized, and their organs were harvested for gamma counting. After gamma counting, lungs were flash-frozen and later analyzed for hydroxyproline (total collagen, fibrosis measure) and allysine content.

Data set [4] is described as follows: Relaxivity measurements in PBS. In kind it is physicochemical. The conditions noted are these: 1.4 T, 37° C. As for the experimental part:
(§2) BSA-ALD (10 mg/mL) or BSA (10 mg/mL) were treated for 24 hours at 37° C. with the corresponding Gd or Mn complex at a range of concentrations (0.01-0.2 mM), with a total volume of 300 μL maintained for all samples. After 24 hours, an aliquot of the solution (50 μL) was used for longitudinal (T1) relaxation measurements, recorded using a Bruker mq60 Minispec at 1.41 T and 37° C. Longitudinal (T1) relaxation times were measured via an inversion recovery experiment using 10 inversions of duration ranging between 0.05×T1 and 10×T1. Solutions (concentration range: 0.1 mM-1.0 mM) in PBS were run in parallel. To measure the relaxivity of BSA-bound species, sodium cyanoborohydride (10 mg) was added to the solution to irreversibly bind the probe to the protein. After a further 2h incubation at 37° C., protein-bound and protein-free solutions were separated by ultrafiltration. Then 200 μL PBS was added to the residue to dissolve the protein. Longitudinal (T1) relaxation times for the bounded species were measured using a Bruker mq60 Minispec at 1.41 T and 37° C. After the measurement, concentration of corresponding metal ion (Gd/Mn) in the residue and filter were both determined using an Agilent 8800 ICP-MS system. Relaxivity (r1) was determined from the slope of a plot of 1/T1 vs metal concentration for 5 concentrations.

The target in data set [5] is bovine serum albumin (BSA) (Bos taurus, UniProt P02769). As to the kind of experiment: Relaxivity measurements with BSA. Format: binding. Conditions: 1.4 T, 37° C., BSA 10 mg/mL. Here is the method: as §2
Chain of bovine serum albumin (BSA) (P02769 25-607): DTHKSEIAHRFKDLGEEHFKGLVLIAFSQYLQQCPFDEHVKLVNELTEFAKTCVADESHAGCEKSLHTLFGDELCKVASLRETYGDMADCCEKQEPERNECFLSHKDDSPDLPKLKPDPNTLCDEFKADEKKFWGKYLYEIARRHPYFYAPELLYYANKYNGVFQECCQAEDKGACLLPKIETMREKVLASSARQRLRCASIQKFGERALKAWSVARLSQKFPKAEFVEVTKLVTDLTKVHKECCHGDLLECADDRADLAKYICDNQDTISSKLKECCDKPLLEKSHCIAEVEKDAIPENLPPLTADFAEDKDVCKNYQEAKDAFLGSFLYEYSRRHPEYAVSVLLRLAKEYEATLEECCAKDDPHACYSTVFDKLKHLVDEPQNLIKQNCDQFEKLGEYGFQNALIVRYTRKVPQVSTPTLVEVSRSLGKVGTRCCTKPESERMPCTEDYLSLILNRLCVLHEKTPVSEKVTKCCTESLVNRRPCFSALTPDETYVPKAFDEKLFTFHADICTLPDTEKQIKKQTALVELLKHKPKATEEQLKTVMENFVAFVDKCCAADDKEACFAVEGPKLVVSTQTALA
The target in data set [6] is T1, BSA-ALD (oxidized bovine serum albumin containing allysine aldehyde groups) (Bos taurus, UniProt P02769).
T1 construct: made in house; host or cells: no expression host: BSA oxidised chemically with sodium ascorbate, ferric chloride and H2O2, then desalted on PD-10
T1 sequence (P02769 25-607): as above
As to the kind of experiment: Relaxivity measurements with BSA-Ald. In kind it is binding. Conditions: 1.4 T, 37° C., BSA-Ald 10 mg/mL. As for the experimental part: Preparation of Allysine Containing Bovine Serum Albumin, BSA-ALD:
To a solution of bovine serum albumin (BSA) (100 mg) dissolved in phosphate buffered saline (4 mL, pH 7.4, 0.25 mM), sodium ascorbate (20 mg), ferric chloride (120 μL, 10 mM) and 20 μL H2O2 (30% w) were added. The reaction was stirred at 37° C. for 24 hours, and sodium ascorbate (20 mg) was added repeatedly every 8 hours. After the reaction, protein was purified using PD-10 Sephadex G25 desalting columns (GE Healthcare), eluted with PBS. Protein concentration was assessed using the ‘BCA Protein Assay Kit’ (Thermo Scientific). Protein carbonyl concentration was determined by ‘Protein Carbonyl Content Assay Kit’ (Sigmal-Aldrich).
Alternatively, preparation of BSA^Ald and binding of Gd^3+ probe to protein was carried out according to modified procedures. To a solution of bovine serum albumin (BSA) (100 mg) dissolved in phosphate buffered saline (4 mL, pH 7.4, 0.25 mM) was added sodium ascorbate (20 mg), ferric chloride (120 μL, 10 mM) and 20 μL H2O2 (30% w). The reaction was stirred at 37° C. for 24 h, and sodium ascorbate (20 mg) was added repeatedly every 8 h. After 24 h, the protein was purified using PD-10 Sephadex G25 desalting columns (GE Healthcare), eluted with PBS. Protein concentration was assessed using the ‘Micro BCA Protein Assay Kit’ (Thermo Scientific, 23235). Protein carbonyl concentration was determined by ‘Protein Carbonyl Content Assay Kit’ (Sigma-Aldrich, MAK094-1KT). […] The protein solutions were kept at a concentration of 20 mg/mL for further use.
as §2

On to `NN1CCN(C(=O)CCC(C(=O)[O-])N2CCN(CC(=O)[O-])CCN(CC(=O)[O-])CCN(C(CCC(=O)N3CCN(N)CC3)C(=O)[O-])CC2)CC1.[Yb+3]` (stereo not shown) [Yb-9], for which the “blocking of Gd-9 liver MRI enhancement” value in data set [1] (10-fold dose (1000 μmol/kg) 15 minutes before Gd-9) was “completely eliminated liver MRI enhancement with Gd-9”.

Turning to `NC(Cn1cccc1)C(=O)NCCOCCOCCOCCNC(=O)CN1CCN(CC(=O)[O-])CCN(CC(=O)[O-])CC1.[64Cu+2]` (stereo not shown) [^64Cu-2], in data set [2], the “Lung uptake, Bleo” value came out at 0.42 % ID/g and the “Lung uptake, Naïve” value is 0.26 % ID/g.

For the molecule `O=C([O-])CN1CCN(CC(=O)[O-])CCN(CC(=O)NCCOCCOCCOCCNC(=O)CN2C(=O)CSC2=S)CC1.[64Cu+2]` [^64Cu-4], in data set [2], the “Lung uptake, Bleo” value was determined as 0.66 % ID/g and the “Lung uptake, Naïve” value came out at 0.38 % ID/g.

With `NN1CCN(C(=O)CCOCCOCCOCCOCCNC(=O)CN2CCN(CC(=O)[O-])CCN(CC(=O)[O-])CC2)CC1.[68Ga+3]` [^68Ga-1], in data set [2], the “Lung uptake, Bleo” value stood at 0.99 % ID/g and the “Lung uptake, Naïve” value came out at 0.27 % ID/g.

Take `NC(Cn1cccc1)C(=O)NCCOCCOCCOCCNC(=O)CN1CCN(CC(=O)[O-])CCN(CC(=O)[O-])CC1.[68Ga+3]` (stereo not shown) [^68Ga-2]: in data set [2], the “Lung uptake, Bleo” value is 0.96 % ID/g and the “Lung uptake, Naïve” value is recorded as 0.45 % ID/g.

As for `Cc1cc(O)n(CC(=O)NCCOCCOCCOCCNC(=O)CN2CCN(CC(=O)[O-])CCN(CC(=O)[O-])CC2)n1.[68Ga+3]` [^68Ga-3], in data set [2], the “Lung uptake, Bleo” value was determined as 2.13 % ID/g and the “Lung uptake, Naïve” value is 0.82 % ID/g.

`O=C([O-])CN1CCN(CC(=O)[O-])CCN(CC(=O)NCCOCCOCCOCCNC(=O)CN2C(=O)CSC2=S)CC1.[68Ga+3]` [^68Ga-4]: in data set [2], the “Lung uptake, Bleo” value turned out to be 0.61 % ID/g and the “Lung uptake, Naïve” value was determined as 0.24 % ID/g.

On to `NNC(=O)C(N)CCC(=O)NCCOCCOCCOCCNC(=O)CN1CCN(CC(=O)[O-])CCN(CC(=O)[O-])CC1.[68Ga+3]` (stereo not shown) [^68Ga-5], for which, in data set [2], the “Lung uptake, Bleo” value stood at 0.88 % ID/g and the “Lung uptake, Naïve” value was 0.30 % ID/g.

Turning to `CNCCC1=NN(CC(=O)NCCOCCOCCOCCNC(=O)CN2CCN(CC(=O)[O-])CCN(CC(=O)[O-])CC2)C(=O)C1.[68Ga+3]` [^68Ga-6], in data set [2], the “Lung uptake, Bleo” value was 1.32 % ID/g and the “Lung uptake, Naïve” value amounted to 0.84 % ID/g.

In the case of `NNC(CCC(=O)NCCOCCOCCOCCNC(=O)CN1CCN(CC(=O)[O-])CCN(CC(=O)[O-])CC1)C(=O)O.[68Ga+3]` (stereo not shown) [^68Ga-7], in data set [3] (Bleomycin injured mice (n = 5)), the “probe uptake in lungs, PET scans” value turned out to be 0.51 % ID/cc and the “probe uptake in lungs, organ counts” value is 2.65 % ID/g. Moreover, in data set [3] (Naïve mice (n = 4)), the “probe uptake in lungs, PET scans” value is listed as 0.23 % ID/cc and the “probe uptake in lungs, organ counts” value turned out to be 0.886 % ID/g. Besides, the “uptake in bleomycin injured lung compared to ^68Ga-NODAGA-indole” value in data set [3] (mouse, in vivo) is on record as “twice the uptake”. Moreover, the “blood clearance and elimination” value in data set [3] (naïve animal) is listed as “rapid blood clearance”.

For GdDOTA [reference compound], in data set [4], the “r1, PBS” value worked out at 4.0 mM⁻¹ s⁻¹. The “r1, +BSA” value in data set [5] was found to be 4.0 mM⁻¹ s⁻¹. Moreover, the “liver enhancement” value in data set [1] (45 min p.i.) is on record as “no significant liver enhancement”. Also, the “ΔCNR (liver to muscle)” value in data set [1] (45 min post injection, 100 μmol/kg i.v., group mean) stood at 0.1 ± 0.2. Also, the “r1, +BSA-Ald” value in data set [6] was 4.0 mM⁻¹ s⁻¹.
